The target in data set [1] is T1, Core antigen (Hepatitis B virus, UniProt Q03732). Briefly: Inhibition of Hepatitis B virus core protein expressed in HBC cells derived from HEK293T cells assessed as reduction in HBcAg level incubated for 6 hrs by Nano-glo luciferase assay. Particulars: read-out: IC50. It is filed as cell-based.
The test system of data set [2] is HepG2. Put plainly: Cytotoxicity against human HepG2 cells measured after 3 days by resazurin staining based analysis. The format is functional. The note with it: HepG2, 72 h, time 3 day.
For data set [3], the system named is Hepatitis B virus. Briefly: Antiviral activity against HBV infected in human HePAD38 cells assessed as reduction in intracellular core HBV DNA level media replaced for every 2 to 3 days incubated for 7 days by Western blot analysis. It is filed as functional, organism-based.
Data set [4] deals with Hepatitis B virus core protein. Put plainly: Selectivity index, ratio of CC50 for human HepG2 cells to IC50 for Hepatitis B virus core protein expressed in HEK293T cells. The format is toxicity, cell-based. The note with it: read-out: Ratio CC50/IC50.
Data set [5] relates to Hepatitis B virus. Briefly: Antiviral activity against HBV infected in human HePAD38 cells assessed as inhibition of HBV capsid assembly by measuring secretion of particles containing HBV DNA at 5 uM incubated for 7 days by Southern blot analysis. The note with it: time 7.0 day. It is filed as functional, organism-based.
In data set [6] the test system is Hepatitis B virus. Put plainly: Antiviral activity against HBV infected in human HePAD38 cells assessed as reduction HBV capsid level at 5 uM media replaced for every 2 to 3 days incubated for 7 days by Western blot analysis. It is filed as functional, organism-based. The note with it: time 7.0 day. A general note: In western blotting, separated proteins are transferred to a membrane and probed.

Data set [7] has as its system Hepatitis B virus. Briefly: Antiviral activity against HBV infected in human HePAD38 cells assessed as decrease in HBV DNA level at 2.5 to 20 uM by q-PCR analysis. It is filed as functional, organism-based. The note with it: dose 2.5-20 µM.
Data set [8] relates to Hepatitis B virus. Briefly: Antiviral activity against HBV infected in BALB/c mouse hydrodynamic injection model hydrodynamically injected with replication-competent HBV DNA plasmid assessed as reduction in HBV DNA copy numbers in plasma at 100 mg/kg, po administered twice daily for 14 days. It is filed as functional, organism-based. Particulars: time 14.0 day.
Data set [9] deals with Hepatitis B virus. Put plainly: Antiviral activity against HBV infected in BALB/c mouse hydrodynamic injection model hydrodynamically injected with replication-competent HBV DNA plasmid assessed as decrease in HBsAG level in mouse serum at 100 mg/kg, po administered twice daily for 7 days by ELISA method. The note with it: time 7.0 day. The format is functional, organism-based.

Data set [10] in a line: Toxicity in BALB/c mouse at 100 mg/kg, po administered twice daily for 14 days. It is filed as organism-based. The note with it: in vivo, 336 h, time 14 day.
Data set [11] concerns the target T1, Core antigen. Briefly: Inhibition of Hepatitis B virus core protein expressed in HBC cells derived from HEK293T cells assessed as reduction in HBcAg level […] incubated for 6 hrs by Nano-glo luciferase assay. The format is cell-based.
Data set [12] deals with Hepatitis B virus. Briefly: Antiviral activity against HBV infected in human HepAD38 cells assessed as inhibition of viral replication incubated for 6 days by qPCR analysis. The format is functional, organism-based. The note with it: HePAD38, 144 h.
Data set [13] deals with Hepatitis B virus. Put plainly: Antiviral activity against HBV infected in human HepAD38 cells assessed as inhibition of viral replication. It is filed as functional, organism-based.
The test system of data set [14] is Hepatitis B virus. Briefly: Antiviral activity against HBV infected in human HepAD38 cells assessed as inhibition of viral replication by Southern blot analysis. The format is functional, organism-based.

Activity calls are given as the source filed them. The rule behind the calls is not given here.

T1 sequence (Q03732 whole entry): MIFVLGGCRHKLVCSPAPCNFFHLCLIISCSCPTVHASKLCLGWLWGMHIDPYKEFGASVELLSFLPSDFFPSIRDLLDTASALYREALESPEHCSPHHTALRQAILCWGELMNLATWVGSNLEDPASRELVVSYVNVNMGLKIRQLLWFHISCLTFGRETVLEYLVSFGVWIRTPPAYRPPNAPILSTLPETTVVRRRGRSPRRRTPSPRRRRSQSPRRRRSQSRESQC

As to `COc1ccc(Cc2nc3ccccc3n2C(C)=O)cc1`, in [1], the IC50 (in general, the concentration that inhibits the measured activity by half) worked out at 1570 nM. The CC50 (commonly the concentration at which the toxic effect on the cells reaches its halfway point) in data set [2] was determined as 42800 nM. The EC50 (commonly the concentration needed to bring the measured effect to its halfway point) in data set [3] was 16100 nM. Further, the selectivity ratio in [4] stood at 27.2. Moreover, in data set [5], the result was Active.

Consider `COc1ccc(Sc2nc3ccccc3n2CCO)cc1`, for which, in data set [1], the IC50 amounted to 510 nM. The same compound had a CC50 in [2] of 84300 nM. Moreover, in [3], the EC50 stood at 2240 nM. For the same compound, in [4], the selectivity ratio was found to be 165. The outcome in data set [6], in data set [5], in data set [7], in data set [8] and in data set [9] was Active. Moreover, the Activity entry in [10] was “Non-Toxic”.

With `COc1ccc(Cc2nc3ccccc3n2CCCCCO)cc1`, the IC50 in data set [1] came to 950 nM. Further, the midpoint of cytotoxicity in data set [2], the CC50, lay at 29500 nM. The EC50 in data set [3] turned out to be 15900 nM. The selectivity ratio in [4] came to 31.1. In addition, the result in data set [6] and in [5] was Active.

In data set [2], `COc1ccc(Cc2nc3ccccc3s2)cc1` had a CC50 of 32600 nM. In addition, the IC50 result in data set [11] was “Not Active”.

Regarding `COc1ccc(-c2nc3ccccc3[nH]2)cc1`, the CC50 in data set [2] was 10300 nM. Also, the IC50 entry in [11] is on record as “Not Active”.

Consider `COc1ccccc1/C(Br)=C(/NC(=O)c1ccc([N+](=O)[O-])cc1)C(=O)N1CCCCC1`, for which, in [12], the EC50 worked out at 200 nM.

With `COc1ccc(Sc2nc3ccccc3[nH]2)cc1`, the IC50 in [1] was 1080 nM. In data set [2], this compound yielded a CC50 of 8130 nM. In addition, the EC50 in [3] came to 2000 nM. In data set [4], the selectivity ratio came to 7.53. The result in [6] and in data set [5] was Active.

On to `COC(=O)C1=C(C)NC(c2ncc(F)cc2F)=N[C@H]1c1ccc(F)cc1Cl`, for which, in data set [13], the EC50 was 24.3 nM.

As for `COc1ccc(Sc2nc3ccccc3n2CCCCCO)cc1`, the IC50 in data set [1] came out at 600 nM. Also, in [2], the CC50 was > 100000 nM. The EC50 in [3] was determined as 5700 nM. Besides, in [4], the selectivity ratio is > 167. The outcome in data set [6] and in data set [5] was Active.

Turning to `CCOC(=O)C1=C(CN2CCOCC2)NC(c2nccs2)=N[C@H]1c1ccc(F)cc1Br`, the EC50 in [14] came to 62.2 nM.

Consider `O=C(NCc1cc(F)c(F)c(F)c1)c1ccc(F)c(S(=O)(=O)N2CCC(O)CC2)c1`, for which, in [13], the EC50 amounted to 290 nM.

Turning to `COc1ccc(Cc2nc3ccccc3[nH]2)cc1`, the IC50 in [1] is 2050 nM. The 50% cytotoxic concentration (CC50) in [2] was > 100000 nM. The EC50 in [3] came to 11900 nM. The selectivity ratio in data set [4] was > 48.8. Also, the result in data set [5] was Active.

Regarding `OCCn1c(Sc2ccc(Br)cc2)nc2ccccc21`, the IC50 in [1] came out at 2010 nM. In addition, in [2], the CC50 came out at 71800 nM. Besides, the EC50 in data set [3] amounted to 1990 nM. For the same compound, in data set [4], the selectivity ratio turned out to be 35.7.

Source of the values: ChEMBL document CHEMBL5512658, “Development of benzimidazole-based compounds as novel capsid assembly modulators for the treatment of HBV infection” (Eur J Med Chem, 2024).
